Measured values published in publication PMC3251870 (British Journal of Cancer, 2011).
Read-outs that look alike come from different tables or passages of the source.

Columns and labels:
[1] = test system: H2073 cells; assay: MTS cell viability, H2073; assay type: cell-based, human; details: H2073 NSCLC, MTS, 4 days
Method: (§1) All human cancer cell lines were maintained in RPMI media supplemented with 5% (lung and breast cancer cells) or 10% (melanoma cells) fetal bovine serum. […] Human mammary epithelial cells immortalised with telomerase were maintained in complete MEGM media from Cambrex (East Rutherford, NJ, USA).
(§2) Absorbance at 490 and 650 nm (reference wavelength) was measured by a Spectra Max (Molecular Devices, Sunnyvale, CA, USA) or a FlouroStar Omega (BMG Biosciences, Ortenberg, Germany) plate reader. Data were normalised to the untreated controls (100% viability). Each cell line was tested in 1–5 independent assays, each containing 4–8 replicates. IC50 values were calculated using DIVISA, a high-throughput software, developed in-house (manuscript in preparation), for storing and analysing drug sensitivity assays. Dose–response curves were plotted using a non-linear regression model and IC50s were determined from the fitted curves.

[2] = test system: OMM2.3 uveal melanoma cells; assay: MTS cell viability, OMM2.3; assay type: cell-based, human; details: 4 days
Method: as §1, §2

[3] = test system: OCM1 uveal melanoma cells; assay: MTS cell viability, OCM1; assay type: cell-based, human; details: 4 days
Method: as §1, §2

[4] = test system: 348T immortalised normal human mammary epithelial cells; assay: MTS cell viability, 348T; assay type: cell-based; details: 4 days
Method: as §1, §2

[5] = test system: MCF-7 cells; assay: MTS cell viability, MCF-7; assay type: cell-based, human; details: 4 days; for IC50: MCF-7 breast cancer line
Method: as §1, §2

[6] = test system: H1437 cells; assay: MTS cell viability, H1437; assay type: cell-based, human; details: H1437 NSCLC, MTS, 4 days
Method: as §1, §2

[7] = test system: HBEC16KT human bronchial epithelial cells; assay: MTS cell viability, HBEC16KT; assay type: cell-based; details: 4 days
Method: as §1, §2

[8] = test system: MEL270 uveal melanoma cells; assay: MTS cell viability, MEL270; assay type: cell-based, human; details: 4 days
Method: as §1, §2

[9] = test system: HBEC30KT human bronchial epithelial cells; assay: MTS cell viability, HBEC30KT; assay type: cell-based; details: HBEC30KT (normal, matched to HCC4017), 4 days
Method: as §1, §2

[10] = test system: A549 cells; assay: MTS cell viability, A549; assay type: cell-based, human; details: A549 NSCLC, 4 days
Method: as §1, §2

[11] = test system: histone 3 trimethylated at lysine 9 in H358 cells; assay: Western blot, histone 3 lysine 9 trimethylation; assay type: cell-based, human
Method: (§3) Exponentially growing cells were treated with the appropriate compounds and harvested 4 or 24 h later in a standard nuclear lysis buffer and whole cell lysates were quantified. Equal amounts of total protein were loaded onto 4–12% Bis-Tris SDS gels and subjected to electrophoresis. After transferring onto nitrocellulose membranes, blots were probed for acetylated tubulin (Sigma, St Louis, MO, USA; T6793), acetylated histone 3 (Millipore/Upstate #06-599), acetylated histone 4 (Millipore/Upstate #07-329) or trimethylated histone 3 at lysine 9 (Millipore/Upstate #07-523). Actin (Santa Cruz, Santa Cruz, CA, USA; #1616) and HDAC1 (Affinity Bioreagents, Rockford, IL, USA; #PA1-860) were probed as loading controls. Quantification of bands in films was performed using two independent methods, which yielded similar results, Image J (NIH public software) and Quantity one (Bio-Rad, Hercules, CA, USA). The average of the two methods±s.e.m. is shown as specified in figure legends. For the MDR western analysis, a primary antibody against P-glycoprotein from Calbiochem (Darmstadt, Germany) was used according to the manufacturer's recommendations and HSP90 (Santa Cruz) was used as a loading control.

[12] = target: T1, recombinant murine HDAC2 (Mus musculus, UniProt P70288); assay: HDAC fluorometric activity assay, purified HDAC2; assay type: biochemical; details: 400 nM
T1 construct: The murine HDAC2 open reading frame was amplified by PCR from the plasmid pME18S-HDAC2; FLAG (DYKDDDDK) (C); made in house; host or cells: Sf9 insect cells (baculovirus)
T1 sequence (P70288 whole entry): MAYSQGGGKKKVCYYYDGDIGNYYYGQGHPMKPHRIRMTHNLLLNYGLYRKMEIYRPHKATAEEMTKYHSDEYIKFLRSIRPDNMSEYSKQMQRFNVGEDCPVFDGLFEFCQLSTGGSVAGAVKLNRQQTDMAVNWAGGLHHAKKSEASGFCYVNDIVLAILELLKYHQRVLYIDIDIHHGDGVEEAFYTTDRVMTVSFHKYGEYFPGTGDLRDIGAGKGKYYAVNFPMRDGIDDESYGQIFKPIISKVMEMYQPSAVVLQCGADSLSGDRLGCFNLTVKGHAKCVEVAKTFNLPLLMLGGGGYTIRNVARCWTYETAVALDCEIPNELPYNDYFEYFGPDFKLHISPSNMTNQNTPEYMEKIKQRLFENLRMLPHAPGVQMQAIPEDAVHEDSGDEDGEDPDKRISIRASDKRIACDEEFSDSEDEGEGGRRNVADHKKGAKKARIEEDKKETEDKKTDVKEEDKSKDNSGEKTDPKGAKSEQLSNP
Excerpt: Cell extracts or purified recombinant HDAC enzymes were used in standard HDAC activity assays using Millipore's HDAC Fluorometric Assay Kit (Millipore, Billerica, MA, USA), according to the manufacturer's protocol. A FluoroStar Omega plate reader (BMG Biosciences) was used for fluorescent detection. […] HDAC2 was purified as described below.

[13] = test system: acetylated tubulin in H358 cells; assay: Western blot, acetylated tubulin; assay type: cell-based, human; details: 200 nM, 24 h
Method: as §3

[14] = test system: H292 cells; assay: MTS cell viability, H292; assay type: cell-based, human; details: H292 NSCLC, 4 days
Method: as §1, §2

[15] = test system: H820 cells; assay: MTS cell viability, H820; assay type: cell-based, human; details: H820 NSCLC, 4 days
Method: as §1, §2

[16] = target: purified recombinant HDAC1 (Homo sapiens, UniProt Q13547); details: 50 nM
purified recombinant HDAC1, sequence (Q13547 whole entry, species assumed): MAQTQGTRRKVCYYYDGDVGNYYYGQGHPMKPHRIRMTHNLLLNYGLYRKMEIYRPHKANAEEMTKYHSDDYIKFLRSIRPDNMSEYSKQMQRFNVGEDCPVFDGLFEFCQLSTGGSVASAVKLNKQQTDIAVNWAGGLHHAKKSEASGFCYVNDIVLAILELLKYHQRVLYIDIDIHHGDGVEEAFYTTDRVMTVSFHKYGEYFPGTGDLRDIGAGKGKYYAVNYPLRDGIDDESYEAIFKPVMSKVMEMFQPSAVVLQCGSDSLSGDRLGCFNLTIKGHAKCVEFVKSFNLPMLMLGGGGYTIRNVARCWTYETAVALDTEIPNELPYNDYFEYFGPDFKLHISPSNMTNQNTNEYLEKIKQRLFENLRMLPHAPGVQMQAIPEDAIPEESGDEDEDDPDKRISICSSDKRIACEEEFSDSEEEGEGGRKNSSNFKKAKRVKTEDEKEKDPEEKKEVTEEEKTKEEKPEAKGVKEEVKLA
Excerpt: (§4) Cell extracts or purified recombinant HDAC enzymes were used in standard HDAC activity assays using Millipore's HDAC Fluorometric Assay Kit (Millipore, Billerica, MA, USA), according to the manufacturer's protocol. A FluoroStar Omega plate reader (BMG Biosciences) was used for fluorescent detection. Purified recombinant active HDACs 1, 5 and 8 were purchased from Millipore/Upstate.

[17] = test system: H1437 cells; assay: ATP-based cell viability, H1437 vs H1299; design: species or system human; details: cell viability by ATP measurements
Excerpt: Supplementary Material Chang et al
This supplementary material contains:
-Supplementary Figure Legends
-Supplementary Figures 1- 4
Please see separate excel file for Supplementary Table 1.
Supplementary Figure Legends
Supplementary Figure 1: Expanded panel of cell lines showing distinct relative sensitivities to
TSA vs. depsipeptide. Lung cancer cell lines not depicted in the main Figure 1A are shown in A)
and an expanded set of breast cancer cells and HMES and melanomacells and melanocytes in
Supplementary Figure 2: Differential response to HDAC inhibitors is a general phenomenon. A)
H1299 also by ATP measurements.
Supplementary Figure 3: HDAC ex pression levels may contribute to drug sensitivity. A)
B) HDAC 2 levels are similar in the cell line
Supplementary Figure 4: Validation of microarray gene expression differences in the
H1993/H2073 cell line pair confirmed overexpression of glutathione metabolism genes in H2073
(shown in A) and downregulation of chromatin interacting proteins (B).

[18] = test system: total HDAC activity, C127 cells; assay: Total HDAC activity in lysates from drug-treated cells; assay type: cell-based; details: 25 nM
Excerpt: HDAC2 was purified as described below.

[19] = target: purified recombinant HDAC8 (Homo sapiens, UniProt Q9BY41)
purified recombinant HDAC8, sequence (Q9BY41 whole entry, species assumed): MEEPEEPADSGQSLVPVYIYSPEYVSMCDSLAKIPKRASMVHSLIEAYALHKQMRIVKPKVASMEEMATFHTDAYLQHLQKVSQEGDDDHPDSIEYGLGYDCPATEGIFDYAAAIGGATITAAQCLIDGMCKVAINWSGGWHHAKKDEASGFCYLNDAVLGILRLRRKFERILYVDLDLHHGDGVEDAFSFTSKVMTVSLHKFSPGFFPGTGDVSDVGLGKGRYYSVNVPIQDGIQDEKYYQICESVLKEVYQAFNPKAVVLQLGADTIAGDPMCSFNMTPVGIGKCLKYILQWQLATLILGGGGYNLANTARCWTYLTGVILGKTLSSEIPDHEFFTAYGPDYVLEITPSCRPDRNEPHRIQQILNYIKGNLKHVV
Excerpt: as §4

SMILES	IC50 [1]	IC50 [2]	IC50 [3]	IC50 [4]	IC50 [5]	IC50 [6]	IC50 [7]	IC50 [8]	IC50 [9]	IC50 [10]	IC50 [14]	IC50 [15]	also measured
CC(/C=C/C(=O)NO)=C\[C@@H](C)C(=O)c1ccc(N(C)C)cc1 [TSA, trichostatin A]	63.7 nM	81 nM	188 nM	81 nM	90 nM	191 nM	260 nM	68 nM	285 nM	39.7 nM	22.5 nM	55 nM	global level of histone 3 trimethylated at lysine 9 ([11]; 200 nM): no effect; inhibition of HDAC2 activity [12]: fully inhibited; acetylated tubulin levels [13]: increase
C/C=C1\NC(=O)[C@H]2CSSCC/C=C/[C@H](CC(=O)N[C@H](C(C)C)C(=O)N2)OC(=O)[C@H](C(C)C)NC1=O [Depsipeptide, depsipeptide]	37.1 nM	2.7 nM	5.5 nM	1.3 nM	4.2 nM	0.5 nM	4.9 nM	1.8 nM	0.9 nM	2 nM	0.7 nM	4 nM	surviving population ([5]; MCF7 cells): 30–40%; inhibition of HDAC1 activity [16]: no inhibition; sensitivity of H1437 compared to H1299 [17]: greater sensitivity; total HDAC activity in lysates made from treated cells vs DMSO-treated cells [18]: strong inhibition; global level of histone 3 trimethylated at lysine 9 ([11]; 25 nM): reproducibly decreased; inhibition of HDAC8 activity ([19]; 50 nM): no effect; inhibition of HDAC8 activity ([19]; 0.5 μM): no effect
